In US7074824B2, “Pharmaceutical compositions containing beta-lapachone, or derivatives or analogs thereof, and methods of using same” (Arqule, Inc., priority 2001, dated 2006):

Experiments:
[1] = Relative solubility of 14C-labeled β-lapachone in aqueous solutions of solubilizing agents; format: physicochemical
Experimental: In light of the above, two different strategies were used to enhance β-lapachone solubility in aqueous solution. First, β-lapachone was treated with metal chelating agents, such as calcium and magnesium, to form soluble complexes; second, β-lapachone was treated with the solubilizing agents β-cyclodextrin and γ-cyclodextrin to form soluble inclusion complexes. In order to evaluate these four reagents, ^14C-labeled β-lapachone in a small volume of ethanol was added to aqueous solutions of the reagents (or to PBS buffer as a control), then the relative solubility of β-lapachone in each of the solutions was measured in terms of radioactivity remaining in the supernatant after centrifugation.
Specifically, to individual 1.5 ml Eppendorf tubes containing 900 μl of PBS buffer were added the following: 8 mM CaCl2 in PBS buffer, 8 mM of MgCl2 in PBS buffer, 8 mM β-cyclodextrin in PBS buffer, and 8 mM γ-cyclodextrin in PBS buffer. 10 μl of C^14 labeled β-lapachone (40,000 CPM, 0.55 μg) in 75% ethanol was then added to each tube. After vortexing and centrifuging at 13,000 rpm for 10 min, 100 μl of the supernatant solution was counted for radioactivity using a Beckman Scintillation Counter. […] After vortexing and centrifuging at 13,000 rpm for 10 min, 100 μl of the supernatant solution was counted again for radioactivity. […]

[2] = system: RPMI 8226 multiple myeloma cells; format: in vivo
Experimental: Chemicals. β-lapachone was synthesized and dissolved in 40% hydroxypropyl β-cyclodextrin at a concentration of 10 mg/mL and kept at room temperature in a dark container. Hydroxypropyl β-cyclodextrin was dissolved in distilled water at a concentration of 10 mg/mL and kept at room temperature. […]®, a basement membrane matrix was purchased from Becton Dickinson Labware (BD Biosciences, Two Oak Park Drive, Bedford, Mass.) and was dissolved in Dulbecco's modified Eagle's medium with 50 μg/mL Gentamycin and kept frozen at −20° C. […]® is extracted from the Engelbreth-Holm-Swarm mouse tumor, a tumor rich in extracellular matrix proteins. The major matrix components are laminin, collagen IV, entactin, and heparan sulfate proteoglycan (perlecan); the matrix also contains growth factors, matrix metalloproteinases (MMPs [collagenases]), and plasminogen activators, without any inhibitors of metalloproteinases (TIMPs). The […] matrix is a solution at 4° C. and gels at room temperature to form a three-dimensional reconstituted basement membrane. This model system closely mimics the structure, composition, physical properties, and functional characteristics of the basement membrane in vivo and provides a physiologically relevant environment for studies of cell morphology, biochemical function, migration or invasion, and gene expression. The frozen […]® matrix was thawed overnight at 4° C. before use.
Cell Cultures. RPMI8226 cells (a human multiple myeloma cell line) were provided Dr. William Dalton (Lee Moffit Cancer Center, Tampa, Fla.). They were maintained by frequent passages in RPMI 1640 (Cellgro®, Mediatech Inc., Herndon, Va.) containing 10% Fetal Bovine serum (FBS) (GibcoBRL, Life Technologies, Grand Island, N.Y.) supplemented with 2×10^−3M L-Glutamine, 100 units/mL penicillin (Pen), and 100 μg/mL streptomycin (Cellgro®D, Mediatech Inc., Herndon, Va.) in 162 cm^2 cell culture flasks (Costar®, Corning Incorporated, Corning, N.Y.). The exponentially growing cell lines were CD138+, CD38+/CD45RA−, EBV negative, and pathogen free.
Mice. Forty male 6 week old Bg-Nu-Xid mice (deficient in T, B, and NK cells) were obtained from the FCRDC, Frederick, Bethesda, Md. and housed at the Redstone animal facility at DFCI. These mice have 3 separate mutations—Beige (Bg) autosomal recessive mutation associated with impaired chemotaxis and motility of macrophages & deficiency of NK cells; the nude (nu) autosomal recessive mutation associated with depletion of T cells due to thymic agenesis; and the X-linked immune defect (xid) which produces functional defects of B lymphocytes. The animals were raised in a barrier facility in cages with saw dust bedding and laminar air at 19–22° C. Rodent food and sterile drinking water were supplied ad libitum. The mice were quarantined to rule out development of any disease. One mouse died during transport, and 5 others were lost because of dehydration (n=2), probable infection (n=2) and excessive bleeding due to trauma (n=1). After 1 week, enrofloxacin (a quinolone antibiotic) was added in drinking water of all mice. All procedures involving animals were approved by and performed according to guidelines of the Institutional Animal Care and Use Committee of the Dana Farber Cancer Institute (DFCI).
Histologic Analysis. The mice were sacrificed when the tumor reached 20 mm in their largest diameter or they became moribund, as per the policy of the Animal Protocol Committee at Dana Farber Cancer Institute. […]

[3] = Solubility of β-lapachone in aqueous HPBCD solutions (heated to 70° C., filtered, HPLC); format: physicochemical
Experimental: A β-lapachone/HPBCD solution was prepared without prior solubilization of the β-lapachone in ethanol solution. β-lapachone was combined with aqueous solutions of HPBCD in varying concentrations and the mixtures were heated to 70° C., then allowed to cool to room temperature. The cooled solutions were filtered (0.22μ), and the amount of the solubilized β-lapachone was measured by HPLC analysis.

human cancer cell lines = settings: single agent, typical range; read-out: antineoplastic activity (IC50); cited from earlier work

SMILES: CC1(C)CCC2=C(O1)c1ccccc1C(=O)C2=O [β-lapachone]
- β-lapachone present in the supernatant ([1]; 0.5 μg β-lapachone added, all five aqueous solutions (PBS, CaCl2, MgCl2, β-cyclodextrin, γ-cyclodextrin)): ~100%
- β-lapachone retained in the supernatant ([1]; 600 μg β-lapachone added, 8 mM β-cyclodextrin in PBS buffer (only this solution)): more than 50%
- tumor volume versus control group ([2]; 50 mg/kg i.p. every alternate day in 40% HPBCD, by day 11, p=0.007): statistically significant decrease in tumor volume
- survival compared to controls ([2]; day 5, 7, 9, 11, 13, 15 and 17, FIG. 16): survival was greater
- MM cell apoptosis in tumors (mean±SD) ([2]; histopathology, light microscopy, p=0.001 versus control): 41.1%±12.7
- kidney histology ([2]; mouse, in vivo): mild tubular vacuolization
- microscopic toxicity on liver, heart, lung, brain, and spleen ([2]; mouse, in vivo): no microscopic evidence of any toxicity
- β-lapachone (highest conc.) ([3]; 10% HPBCD in water): 3.1 mg/mL
- β-lapachone (highest conc.) ([3]; 20% HPBCD in water): 7.4 mg/mL
- β-lapachone (highest conc.) ([3]; 30% HPBCD in water): 10.8 mg/mL
- β-lapachone (highest conc.) ([3]; 40% HPBCD in water): 15.8 mg/mL
- IC50 (human cancer cell lines): 1 to 10 µM
